Measured values published in ChEMBL document CHEMBL5050844 (2019).

Assays:
[1] = Induction of anti-CD3/CD28 antibodies-stimulated human T cell activation at 4 uM assessed fold increase in IL-2 secretion measured by ELISA assay; type: functional, T cell line
[2] = Induction of anti-CD3/CD28 antibodies-stimulated human T cell activation at 0.3 uM assessed fold increase in IL-2 secretion measured by ELISA assay; type: functional, T cell line
[3] = Induction of anti-CD3 antibodies-stimulated human T cell activation at 8 uM assessed fold increase in IL-2 secretion measured by ELISA assay; type: functional, T cell line; also: reference of the scale not given here
[4] = Induction of anti-CD3 antibodies-stimulated human T cell activation at 1 uM assessed fold increase in IL-2 secretion measured by ELISA assay; type: functional, T cell line; also: reference of the scale not given here
[5] = Induction of anti-CD3/CD28 antibodies-stimulated human T cell activation at 4 uM assessed fold increase in CD25 expression measured by ELISA assay; type: functional, T cell line
[6] = Induction of anti-CD3/CD28 antibodies-stimulated human T cell activation at 1 uM assessed fold increase in CD25 expression measured by ELISA assay; type: functional, T cell line
[7] = Induction of anti-CD3 antibodies-stimulated human T cell activation at 1 uM assessed fold increase in CD25 expression measured by ELISA assay; type: functional, T cell line; also: reference of the scale not given here
[8] = Induction of anti-CD3/CD28 antibodies-stimulated human CD4+ T cell activation at 1.11 uM assessed fold increase in CD69 expression measured by flow cytometry analysis; type: functional, T cell line
[9] = Induction of anti-CD3/CD28 antibodies-stimulated human CD4+ T cell activation at 10 uM assessed fold increase in cell proliferation measured by flow cytometry analysis; type: functional, T cell line
[10] = Induction of anti-CD3/CD28 antibodies-stimulated human CD8+ T cell activation at 10 uM assessed fold increase in CD69 expression measured by flow cytometry analysis; type: functional, T cell line
[11] = Induction of anti-CD3/CD28 antibodies-stimulated human CD8+ T cell activation at 10 uM assessed fold increase in cell proliferation measured by flow cytometry analysis; type: functional, T cell line
[12] = Induction of anti-CD3/CD28 antibodies-stimulated human CD8+ T cell activation at 1.11 uM assessed fold increase in cell proliferation measured by flow cytometry analysis; type: functional, T cell line
[13] = Induction of anti-CD3 antibodies-stimulated human CD4+ T cell activation at 10 uM assessed fold increase in CD69 expression measured by flow cytometry analysis; type: functional, T cell line; also: reference of the scale not given here
[14] = Induction of anti-CD3 antibodies-stimulated human CD4+ T cell activation at 1.11 uM assessed fold increase in CD69 expression measured by flow cytometry analysis; type: functional, T cell line; also: reference of the scale not given here
[15] = Induction of anti-CD3 antibodies-stimulated human CD8+ T cell activation at 10 uM assessed fold increase in cell proliferation measured by flow cytometry analysis; type: functional, T cell line; also: reference of the scale not given here
[16] = Induction of anti-CD3 antibodies-stimulated human CD8+ T cell activation at 1.11 uM assessed fold increase in cell proliferation measured by flow cytometry analysis; type: functional, T cell line; also: reference of the scale not given here
[17] = Induction of anti-CD3/CD28 antibodies-stimulated human T cell activation at 10 uM assessed fold increase in GM-CSF secretion measured by ELISA assay; type: functional, T cell line
[18] = Induction of anti-CD3/CD28 antibodies-stimulated human T cell activation at 1.11 uM assessed fold increase in GM-CSF secretion measured by ELISA assay; type: functional, T cell line
[19] = Induction of anti-CD3 antibodies-stimulated human T cell activation at 10 uM assessed fold increase in GM-CSF secretion measured by ELISA assay; type: functional, T cell line; also: reference of the scale not given here
[20] = Induction of anti-CD3/CD28 antibodies-stimulated human T cell activation at 10 uM assessed fold increase in TNF-alpha secretion measured by ELISA assay; type: functional, T cell line
[21] = Induction of anti-CD3/CD28 antibodies-stimulated human T cell activation at 1.11 uM assessed fold increase in TNF-alpha secretion measured by ELISA assay; type: functional, T cell line
[22] = Induction of anti-CD3 antibodies-stimulated human T cell activation at 10 uM assessed fold increase in TNF-alpha secretion measured by ELISA assay; type: functional, T cell line; also: reference of the scale not given here
[23] = Induction of anti-CD3/CD28 antibodies-stimulated human T cell activation at 10 uM assessed fold increase in IFN-gamma secretion measured by ELISA assay; type: functional, T cell line
[24] = Induction of anti-CD3/CD28 antibodies-stimulated human T cell activation at 1.11 uM assessed fold increase in IFN-gamma secretion measured by ELISA assay; type: functional, T cell line
[25] = Induction of anti-CD3 antibodies-stimulated human T cell activation at 1.11 uM assessed fold increase in IFN-gamma secretion measured by ELISA assay; type: functional, T cell line; also: reference of the scale not given here
[26] = Induction of allogenic human T cell activation at 10 uM assessed fold increase in cell proliferation; type: functional, T cell line
[27] = Induction of allogenic human T cell activation at 3 uM assessed fold increase in cell proliferation; type: functional, T cell line
[28] = Induction of anti-CD3 antibodies-stimulated human exhausted T cell activation assessed fold increase in IFN-gamma secretion measured by ELISA assay; type: functional, T cell line; also: reference of the scale not given here
[29] = Induction of anti-CD3 antibodies-stimulated human exhausted T cell activation assessed fold increase in GM-CSF secretion measured by ELISA assay; type: functional, T cell line; also: reference of the scale not given here
[30] = Induction of anti-CD3 antibodies-stimulated human exhausted CD4+ T cell activation assessed fold increase in CTLA4 expression measured by flow cytometry analysis; type: functional, T cell line; also: reference of the scale not given here
[31] = Induction of anti-CD3/CD28 antibodies-stimulated human anergic T cell activation at 1.11 uM assessed fold increase in IFN-gamma secretion measured by ELISA assay; type: functional, T cell line
[32] = Induction of anti-CD3/CD28 antibodies-stimulated human anergic T cell activation at 0.37 uM assessed fold increase in IFN-gamma secretion measured by ELISA assay; type: functional, T cell line
[33] = tested on: B cell; test: Induction of anti-IgM-stimulated human CD20+ B cell activation at 10 to 1000 uM assessed as increase in CD69 expression measured as mean fluorescence intensity AUC by flow cytometry analysis; type: functional, cell-based; conditions: dose 10-1000 µM
[34] = Induction of activation of human CD56+ CD3- NK cells co-cultured with human K562 cells in 1:1 ratio and assessed as increase in IFN-gamma secretion at 10 uM measured by ELISA assay; type: functional, Natural killer cell
[35] = Induction of activation of human CD56+ CD3- NK cells co-cultured with human K562 cells in 1:1 ratio and assessed as increase in TNF-alpha secretion at 10 uM measured by ELISA assay; type: functional, Natural killer cell
[36] = Induction of activation of human CD56+ CD3- NK cells co-cultured with human K562 cells in 1:1 ratio and assessed as increase in IFN-gamma secretion at 2.5 uM measured by ELISA assay; type: functional, Natural killer cell
[37] = Induction of activation of human CD56+ CD3- NK cells co-cultured with human K562 cells in 1:1 ratio and assessed as increase in TNF-alpha secretion at 2.5 uM measured by ELISA assay; type: functional, Natural killer cell
[38] = Induction of activation of human CD56+ CD3- NK cells co-cultured with human K562 cells in 1:1 ratio and assessed as increase in TNF-alpha secretion at 0.625 uM measured by ELISA assay; type: functional, Natural killer cell

Compound | fold change (FC) [1] | fold change (FC) [2] | fold change (FC) [3] | fold change (FC) [4] | fold change (FC) [5] | fold change (FC) [6] | fold change (FC) [7] | fold change (FC) [8] | fold change (FC) [9] | fold change (FC) [10] | fold change (FC) [11] | fold change (FC) [12] | fold change (FC) [13] | fold change (FC) [14] | fold change (FC) [15] | fold change (FC) [16] | fold change (FC) [17] | fold change (FC) [18] | fold change (FC) [19] | fold change (FC) [20] | further results
Cn1cnnc1C(F)(F)[C@](C)(F)c1cccc(N2Cc3c(cc(C(=O)N4CC[C@H](O)C4)cc3C(F)(F)F)C2=O)c1 | >=7.5 | 1.01 | >=0.201 | 0.101 | 1.31 | 1.01 | 0.801 | 1.201 | >4 | 1.201 | 3.01 | <=2 | >1.601 | 1.201 | >4 | <=2 | 2.01 | 1.51 | 2.01 | 2.01 | fold change (FC) [21]: <=1.5; fold change (FC) [22]: 1.51; fold change (FC) [23]: 2.01; fold change (FC) [24]: <=2; fold change (FC) [25]: <=2; fold change (FC) [26]: <=2; fold change (FC) [27]: <=2; fold change (FC) [28]: <=1.4; fold change (FC) [29]: <=1.4; fold change (FC) [30]: <=1.4; fold change (FC) [31]: <=2.5; fold change (FC) [32]: <=2.5; AUC [33]: < 0.5; fold change (FC) [34]: <=1; fold change (FC) [35]: 1.01; fold change (FC) [36]: 1.01; fold change (FC) [37]: 1.01; fold change (FC) [38]: 1.01
Cn1cnnc1CC1(c2cccc(N3Cc4c(cc(CN5CC[C@H](C#N)C5)cc4C(F)(F)F)C3=O)c2)COC1 | >=7.5 | 5 | >=0.201 | >=0.201 | 1.31 | 1.31 | >=1.001 | 1.201 | >4 | 1.201 | 3.01 | 2.01 | >1.601 | 1.401 | >4 | 3.01 | >4 | 2.01 | 2.01 | 2.01 | fold change (FC) [21]: 2.01; fold change (FC) [22]: 1.51; fold change (FC) [23]: >4; fold change (FC) [24]: 3.01; fold change (FC) [25]: <=2; fold change (FC) [26]: 2.01; fold change (FC) [27]: <=2; fold change (FC) [28]: <=1.4; fold change (FC) [29]: 1.41; fold change (FC) [30]: >1.61; fold change (FC) [31]: 2.51; fold change (FC) [32]: <=2.5; AUC [33]: 1.01; fold change (FC) [34]: 2.01; fold change (FC) [35]: 2.01; fold change (FC) [36]: 1.01; fold change (FC) [37]: 1.01; fold change (FC) [38]: 1.01
C[C@H](Cc1nncn1C)c1cccc(N2Cc3c(cc(CN4CC(C)(O)C4)cc3C(F)(F)F)C2=O)c1 | >=7.5 | 2.51 | >=0.201 | 0.151 | 1.31 | 1.31 | >=1.001 | 1.401 | >4 | 1.201 | >4 | 3.01 | >1.601 | >1.601 | >4 | >4 | >4 | 2.01 | 2.01 | 2.01 | fold change (FC) [21]: 2.01; fold change (FC) [22]: 1.51; fold change (FC) [23]: >4; fold change (FC) [24]: 2.01; fold change (FC) [25]: <=2; fold change (FC) [26]: 2.01; fold change (FC) [27]: <=2; fold change (FC) [28]: >1.61; fold change (FC) [29]: 1.41; fold change (FC) [30]: >1.61; fold change (FC) [31]: >4.01; fold change (FC) [32]: <=2.5; AUC [33]: 0.5; fold change (FC) [34]: >=5; fold change (FC) [35]: 2.01; fold change (FC) [36]: 2.01; fold change (FC) [37]: 2.01; fold change (FC) [38]: 1.01
